Measurements as given in ChEMBL document CHEMBL3885881, “DrugMatrix”.

Species: Rattus norvegicus
Assay: DrugMatrix - Regimen: Daily Repeat
Assay type: toxicity, organism-based, Sprague-Dawley
Parameters: regimen Daily Repeat, gender Male, age 6-8 weeks
Details: in vivo, po, route oral GAVAGE, […]; for ABSOLUTE BASOPHIL / ABSOLUTE EOSINOPHIL / ABSOLUTE LYMPHOCYTE / ABSOLUTE MONOCYTE / ABSOLUTE SEGMENTED NEUTROPHIL / BASOPHIL / EOSINOPHIL / ERYTHROCYTE COUNT / HEMATOCRIT / HEMOGLOBIN / LEUKOCYTE COUNT / LYMPHOCYTE / MEAN CORPUSCULAR HEMOGLOBIN / MEAN CORPUSCULAR HEMOGLOBIN CONCENTRATION / MEAN CORPUSCULAR VOLUME / MONOCYTE / NEUTROPHIL / NUCLEATED RED BLOOD CELLS / PLATELET COUNT: tissue Blood; for ALANINE AMINOTRANSFERASE / ALBUMIN / ALKALINE PHOSPHATASE / ASPARTATE AMINOTRANSFERASE / BLOOD UREA NITROGEN / CARBON DIOXIDE / CHLORIDE / CHOLESTEROL / CREATINE PHOSPHOKINASE / CREATININE / GLUCOSE / LACTATE DEHYDROGENASE / LIPASE / PHOSPHORUS / POTASSIUM / SODIUM / TOTAL BILIRUBIN / TOTAL PROTEIN / URIC ACID: tissue Plasma
[1] = 0 mg/kg, 72 h, dose level Control, time 3 day
[2] = 0 mg/kg, 120 h, dose level Control, time 5 day
[3] = 1 mg/kg, 72 h, dose level Low, time 3 day

Structure (SMILES): CCOC(=O)C1=C(C)NC(C)=C(C(=O)OCC)C1c1ccccc1/C=C/C(=O)OC(C)(C)C [LACIDIPINE]
- ABSOLUTE BASOPHIL [1]: 0 CELLS/uL
- ABSOLUTE EOSINOPHIL [1]: 13.67 CELLS/uL
- ABSOLUTE LYMPHOCYTE [1]: 10069.5 CELLS/uL
- ABSOLUTE MONOCYTE [1]: 50 CELLS/uL
- ABSOLUTE SEGMENTED NEUTROPHIL [1]: 516.83 CELLS/uL
- BASOPHIL [1]: 0%
- EOSINOPHIL [1]: 0.17%
- ERYTHROCYTE COUNT [1]: 5.44 x10E6/uL
- HEMATOCRIT [1]: 33.88%
- HEMOGLOBIN [1]: 13.23 G/DL
- LEUKOCYTE COUNT [1]: 10.65 x10E3/uL
- LYMPHOCYTE [1]: 94.67%
- MEAN CORPUSCULAR HEMOGLOBIN [1]: 24.37 pg
- MEAN CORPUSCULAR HEMOGLOBIN CONCENTRATION [1]: 39.05 G/DL
- MEAN CORPUSCULAR VOLUME [1]: 62.38 fL
- MONOCYTE [1]: 0.67%
- NEUTROPHIL [1]: 4.5%
- NUCLEATED RED BLOOD CELLS [1]: 0.33 /100WBC
- PLATELET COUNT [1]: 414.5 x10E3/uL
- ALANINE AMINOTRANSFERASE [1]: 72 u/L
- ALBUMIN [1]: 3.75 G/DL
- ALKALINE PHOSPHATASE [1]: 375 u/L
- ASPARTATE AMINOTRANSFERASE [1]: 87.5 u/L
- BLOOD UREA NITROGEN [1]: 14 mg/dL
- CARBON DIOXIDE [1]: 27.5 mmol/L
- CHLORIDE [1]: 95.83 MEQ/L
- CHOLESTEROL [1]: 68.5 mg/dL
- CREATINE PHOSPHOKINASE [1]: 284.33 u/L
- CREATININE [1]: 0.16 mg/dL
- GLUCOSE [1]: 156.67 mg/dL
- LACTATE DEHYDROGENASE [1]: 101.83 u/L
- LIPASE [1]: 9.67 u/L
- PHOSPHORUS [1]: 10.33 mg/dL
- POTASSIUM [1]: 5.22 MEQ/L
- SODIUM [1]: 137.67 MEQ/L
- TOTAL BILIRUBIN [1]: 0.13 mg/dL
- TOTAL PROTEIN [1]: 5.43 G/DL
- URIC ACID [1]: 0.8 mg/dL
- ABSOLUTE BASOPHIL [2]: 0 CELLS/uL
- ABSOLUTE EOSINOPHIL [2]: 20.67 CELLS/uL
- ABSOLUTE LYMPHOCYTE [2]: 11518.33 CELLS/uL
- ABSOLUTE MONOCYTE [2]: 47 CELLS/uL
- ABSOLUTE SEGMENTED NEUTROPHIL [2]: 614 CELLS/uL
- BASOPHIL [2]: 0%
- EOSINOPHIL [2]: 0.17%
- ERYTHROCYTE COUNT [2]: 5.61 x10E6/uL
- HEMATOCRIT [2]: 34.25%
- HEMOGLOBIN [2]: 13.38 G/DL
- LEUKOCYTE COUNT [2]: 12.2 x10E3/uL
- LYMPHOCYTE [2]: 94.33%
- MEAN CORPUSCULAR HEMOGLOBIN [2]: 23.83 pg
- MEAN CORPUSCULAR HEMOGLOBIN CONCENTRATION [2]: 39.08 G/DL
- MEAN CORPUSCULAR VOLUME [2]: 61.03 fL
- MONOCYTE [2]: 0.33%
- NEUTROPHIL [2]: 5.17%
- NUCLEATED RED BLOOD CELLS [2]: 0 /100WBC
- PLATELET COUNT [2]: 941.83 x10E3/uL
- ALANINE AMINOTRANSFERASE [2]: 68.83 u/L
- ALBUMIN [2]: 4.12 G/DL
- ALKALINE PHOSPHATASE [2]: 492.67 u/L
- ASPARTATE AMINOTRANSFERASE [2]: 83.33 u/L
- BLOOD UREA NITROGEN [2]: 14 mg/dL
- CARBON DIOXIDE [2]: 37 mmol/L
- CHLORIDE [2]: 98.67 MEQ/L
- CHOLESTEROL [2]: 56.5 mg/dL
- CREATINE PHOSPHOKINASE [2]: 167.33 u/L
- CREATININE [2]: 0.17 mg/dL
- GLUCOSE [2]: 157.5 mg/dL
- LACTATE DEHYDROGENASE [2]: 104.83 u/L
- LIPASE [2]: 10 u/L
- PHOSPHORUS [2]: 10.43 mg/dL
- POTASSIUM [2]: 5.46 MEQ/L
- SODIUM [2]: 143.87 MEQ/L
- TOTAL BILIRUBIN [2]: 0.17 mg/dL
- TOTAL PROTEIN [2]: 5.72 G/DL
- URIC ACID [2]: 0.85 mg/dL
- ABSOLUTE BASOPHIL [3]: 0 CELLS/uL
- ABSOLUTE EOSINOPHIL [3]: 98 CELLS/uL
- ABSOLUTE LYMPHOCYTE [3]: 10170.33 CELLS/uL
- ABSOLUTE MONOCYTE [3]: 49.33 CELLS/uL
- ABSOLUTE SEGMENTED NEUTROPHIL [3]: 815.67 CELLS/uL
- BASOPHIL [3]: 0%
- EOSINOPHIL [3]: 0.67%
- ERYTHROCYTE COUNT [3]: 5.08 x10E6/uL
- HEMATOCRIT [3]: 32.6%
- HEMOGLOBIN [3]: 13 G/DL
- LEUKOCYTE COUNT [3]: 11.13 x10E3/uL
- LYMPHOCYTE [3]: 91%
- MEAN CORPUSCULAR HEMOGLOBIN [3]: 25.63 pg
- MEAN CORPUSCULAR HEMOGLOBIN CONCENTRATION [3]: 39.9 G/DL
- MEAN CORPUSCULAR VOLUME [3]: 64.17 fL
- MONOCYTE [3]: 0.67%
- NEUTROPHIL [3]: 7.67%
- NUCLEATED RED BLOOD CELLS [3]: 0 /100WBC
- PLATELET COUNT [3]: 968 x10E3/uL
- ALANINE AMINOTRANSFERASE [3]: 76 u/L
- ALBUMIN [3]: 3.93 G/DL
- ALKALINE PHOSPHATASE [3]: 408.67 u/L
- ASPARTATE AMINOTRANSFERASE [3]: 89 u/L
- BLOOD UREA NITROGEN [3]: 12.33 mg/dL
- CARBON DIOXIDE [3]: 25 mmol/L
- CHLORIDE [3]: 96.67 MEQ/L
- CHOLESTEROL [3]: 78 mg/dL
- CREATINE PHOSPHOKINASE [3]: 356.67 u/L
- CREATININE [3]: 0.21 mg/dL
- GLUCOSE [3]: 154.33 mg/dL
- LACTATE DEHYDROGENASE [3]: 122.67 u/L
- LIPASE [3]: 12 u/L
- PHOSPHORUS [3]: 9.57 mg/dL
- POTASSIUM [3]: 5.36 MEQ/L
- SODIUM [3]: 139.33 MEQ/L
- TOTAL BILIRUBIN [3]: 0.13 mg/dL
- TOTAL PROTEIN [3]: 5.4 G/DL
- URIC ACID [3]: 0.5 mg/dL
